Measured values taken from ChEMBL document CHEMBL3425453, “Luciferin and derivatives as a DYRK selective scaffold for the design of protein kinase inhibitors” (Eur J Med Chem, 2015).

Molecular target: Cyclin-dependent kinase 2 (Homo sapiens) (UniProt P24941)

SMILES | Tm
O=C(O)[C@H]1CSC(c2ccc3cccc(O)c3n2)=N1 | 43.9 °C
O=C(O)[C@H]1CSC(c2ccc3cc(O)ccc3n2)=N1 | 43.4 °C
